The values that follow come from patent US20210000778A1.

In series [1] the test system is 22RV1. Put plainly: In vitro killing of prostate cancer cell lines, CellTiter 96 cell survival. The format is cell-based. Conditions: Homo sapiens, 60 hrs in RPMI with 10% FBS. As to the method:
(§1) Cell survival was assayed with CellTiter 96® Aqueous One Solution Cell Proliferation Assay (Promega). EC50 values were calculated.

Series [2] concerns DU 145. The series is described as above. It counts as cell-based. Conditions: Homo sapiens, 60 hrs in RPMI with 10% FBS. As to the method: as §1
The test system of series [3] is LnCap. Described as above. The format is cell-based. Conditions: Homo sapiens, 60 hrs in RPMI with 10% FBS. Here is the method: as §1
Series [4] concerns PC-3. The description is as above. The format is cell-based. The note with it: Homo sapiens, 60 hrs in RPMI with 10% FBS. Here is the method: as §1
Series [5] relates to RWPI-1. The description is as above. It counts as cell-based. The note with it: 60 hrs in RPMI with 10% FBS. Here is the method: as §1
The test system of series [6] is androgen-resistance prostate PC-3 cancer cells. In words: PC-3 flank model of androgen-resistant prostate cancer. It counts as in vivo. Conditions: 2.5 mg/kg or 10 mg/kg, 2-3 times per week for five weeks.
The subject of series [7] is Human H460 NSCLC cells. In words: Oral efficacy in human non-small cell lung cancer xenografts. It counts as in vivo, CD1-Nu/Nu female mice. Conditions: H460 xenograft; oral 100 mg/kg on day 8, 15, 22, 29; vs 5% dextrose or untreated. As to the method: Human H460 NSCLC cells were obtained from American Type Cell Culture (ATCC) (catalog no. HTB-177, Manassas, Va.). These cells tested negative for viral contamination using the Mouse Antibody Production (MAP) test, performed by Charles River Labs Molecular Division, upon the receipt of the tumor cells from ATCC. The tumor cells were maintained at 37° C. in a humidified 5% CO2 atmosphere in T225 tissue culture flasks containing 50 mL of Roswell Park Memorial Institute (RPMI)-1640 solution with 10% Fetal Bovine Serum (FBS) and 2 mM L-glutamine. Cells were split at a ratio of 1:10 every 2-3 days by trypsinization and resuspended in fresh medium in a new flask. Cells were harvested for experiments in the same way at 70-90% confluency.
CD1-Nu/Nu female mice, ˜4-6 weeks old were obtained from Charles River Laboratories. Mice were housed 5 to a cage in a micro-isolator room in the Department of Animal Laboratory Research of New York State University (SUNY) at Stony Brook. Light-dark cycles were 12 h each daily, with light from 7 a.m. to 7 p.m. […]
An acclimation period of 7 days was allowed between the arrival of the animal at the study site before tumor inoculation and experimentation. […] Tumor dimensions (length and width) were measured daily before, during and after treatment (using Vernier calipers) and the tumor volume was calculated using the prolate ellipsoid formula: (length× width^2)/2. […]
For orientation: In xenograft studies the graft and the host belong to different species.

Series [8] concerns BxPC3 pancreatic cancer cells. In words: Oral efficacy in human pancreatic cancer xenografts. The note with it: BxPC-3 xenograft; oral dose of 100 mg/week for 4 weeks; vs 5% dextrose or untreated. The format is in vivo, CD-1 nude mice. As to the method: An acclimation period of 7 days was allowed between the arrival of the animal at the study site before tumor inoculation and experimentation. Mice were inoculated subcutaneously (SC) in the right flank with 2×10^6 human H460 NSCLC or BxPC3 pancreatic cancer cells that were suspended in 0.1 mL of Dulbeco's Phosphate Buffered Salt (PBS) solution using a 1 cc syringe with a 27-5/8 gauge needle. Tumor dimensions (length and width) were measured daily before, during and after treatment (using Vernier calipers) and the tumor volume was calculated using the prolate ellipsoid formula: (length× width^2)/2. Treatment with test or control articles began 8 days post tumor cell implantation when the tumor was approximately 300 mm^3.
A similar study was conducted in CD-1 nude mice (n=9) inoculated with 2×10^6 BxPC-3 cells. The study was initiated when tumors reached an average size of 150 mm^3 (day 0) and CPI-613 was administered at an oral dose of 100 mg/week for 4 weeks. A comparator arm (n=9) was conducted with IP treatment at a weekly dose of 25 mg/kg.

The conditions of series [9]: Pardee et al., Clin Cancer Res. 2014; cited from earlier work.

For the compound `O=C(O)CCCCC(CCSCc1ccccc1)SCc1ccccc1` (centres unmarked), the EC50 (as a rule, the concentration at which the effect is half-maximal) in series [1] worked out at 175 µM; in [2], 99 µM; in series [3], 114 µM; in series [4] it was 202 µM; in series [5], 147 µM. The Toxicity result in [6] is “without toxicity”. Moreover, in series [6] (vs saline control), the “Survival of the mice” value is given as “increased survival”. Further, the “Tumor growth (tumor volume over time)” value in series [6] (vs saline control) is “significantly slower”. Besides, the results for the Tumor growth entry in series [7] and in series [8] were “grew much more slowly” and “especially pronounced”, respectively. For the same compound, the “half-life after IV dosing” value in series [9] is 1 to 2 h.
